Key:
HIV = conditions: drug used on its own, patients; cited from earlier work
[1] = human, in vivo; cited from earlier work
gp120/CD4 binding = gp120/CD4 binding (UniProt P01730+P03375); experiment: Test 1: inhibition of gp120/CD4 binding, recombinant proteins in an immunoassay format
wild-type HIV-1(111a) = type: cell-based; conditions: CEM cells, 4 days incubation at 37°C, syncytium formation
Method: The results shown in Table 1 for test 2 were obtained by testing cell cultures in accordance with the following procedure.
CEM cells were suspended at approximately 250,000 cells per milliliter of culture medium and infected with wild-type HIV-1(111a) at approximately 100 times the 50% cell culture infective dose (CCID50) per milliliter. Then 100µl of the infected cell suspensions were added to 200 µl microtiter plate wells containing 100 µl of an appropriate dilution of the test compounds. After 4 days incubation at 37°C the cell cultures were microscopically examined for syncytium formation.

Molecule	REDUCTION IN VIRAL LOAD (HIV)	SIDE EFFECTS [1]	further results
Nc1nc(NC2CC2)c2ncn([C@H]3C=C[C@@H](CO)C3)c2n1 [Abacavir]	50-90%		
CC(C)Nc1cccnc1N1CCN(C(=O)c2cc3cc(NS(C)(=O)=O)ccc3[nH]2)CC1 [Delaviridine]	50-90%		
O=c1[nH]cnc2c1ncn2[C@H]1CC[C@@H](CO)O1 [Didanosine (ddl), Didanosine]	50-90%		
O=C1Nc2ccc(Cl)cc2[C@@](C#CC2CC2)(C(F)(F)F)O1 [Efavirenz]	50-90%		
Nc1ccn([C@@H]2CS[C@H](CO)O2)c(=O)n1 [Lamivudine (3TC), Lamivudine]		gastrointestinal disturbances, hair loss, myelosuppression, exacerbation of peripheral neuropathy	
Cc1c(O)cccc1C(=O)N[C@@H](CSc1ccccc1)[C@H](O)CN1C[C@H]2CCCC[C@H]2C[C@H]1C(=O)NC(C)(C)C [Nelfinavir (Viracept), Nelfinavir]		diarrohea, nausea & vomiting	
Cc1ccnc2c1NC(=O)c1cccnc1N2C1CC1 [Nevirapine]	50-90%		
CC(C)c1nc(CN(C)C(=O)N[C@H](C(=O)N[C@@H](Cc2ccccc2)C[C@H](O)[C@H](Cc2ccccc2)NC(=O)OCc2cncs2)C(C)C)cs1 [Ritonavir]		diarrhoea nausea, vomiting, hepatitis, headache	
CC(C)(C)NC(=O)[C@@H]1C[C@@H]2CCCC[C@@H]2CN1C[C@@H](O)[C@H](Cc1ccccc1)NC(=O)[C@H](CC(N)=O)NC(=O)c1ccc2ccccc2n1 [Saquinavir]		loose stools, nausea, headache	
Cc1cn([C@H]2C=C[C@@H](CO)O2)c(=O)[nH]c1=O [Stavudine (d4T), Stavudine]	50-90%		
Nc1ccn([C@H]2CC[C@@H](CO)O2)c(=O)n1 [Zalcitabine (ddc), Zalcitabine]	50-90%		
Cc1cn([C@H]2C[C@H](N=[N+]=[N-])[C@@H](CO)O2)c(=O)[nH]c1=O [Zidovudine (AZT), Zidovudine]	50-90%	myelosupression, myopathy, nausea, headache, anaemia	
dodecapotassium acetate of p-bromopyrogallol P-F-phenyl tetramer [AC-1 (1151c)]			% inhibition of gp120/CD4 binding (gp120/CD4 binding; Conc um 0.39): 48%; % inhibition of gp120/CD4 binding (gp120/CD4 binding; Conc um 0.78): 55%; % inhibition of gp120/CD4 binding (gp120/CD4 binding; Conc um 1.56): 62%; % inhibition of gp120/CD4 binding (gp120/CD4 binding; Conc um 3.125): 70%; % inhibition of gp120/CD4 binding (gp120/CD4 binding; Conc um 6.25): 82%; % inhibition of gp120/CD4 binding (gp120/CD4 binding; Conc um 12.5): 86%; % inhibition of gp120/CD4 binding (gp120/CD4 binding; Conc um 25): 91%; % inhibition of gp120/CD4 binding (gp120/CD4 binding; Conc um 50): 93%; % inhibition of gp120/CD4 binding (gp120/CD4 binding; Conc um 100): 96%; EC50 (gp120/CD4 binding; read-out: Test 1 EC50, concentration which reduces gp120 interaction with CD4 by 50%): 500 to 1000 nM; Test 2 EC50 (wild-type HIV-1(111a)): 4 µg/mL
